This passage reports EC50 results from patent US20250042879A1, “HETEROCYCLIC SUBSTITUTED 1,3,4-THIADIAZOLE AND PYRIDAZINE COMPOUNDS AND METHODS OF USING THE SAME” (Rgenta Therapeutics, Inc., priority 2021, published 2025).

What all share (format): cell-based
One assay deals with HTT. The experiment in a line: Mini-gene reporter assay-HTT (firefly luciferase, exon inclusion). The settings on record: Homo sapiens; HTT mini-gene firefly luciferase reporter transiently transfected into HEK293 cells. The procedure, abridged:
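HEK293 cells transiently transfected with a pcDNA3.1 mini-gene carrying the alternatively skipped exon with flanking introns and exons fused to firefly luciferase were incubated with compound, in duplicate. Exon inclusion raises luciferase luminescence. EC50 came from Levenberg-Marquardt curve fitting.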

The test system of assay [1] is HTT (inclusion transcript). The experiment in a line: RT-qPCR assay to quantify changes in HTT splice isoforms: inclusion transcript. The following applies: Homo sapiens, SK-N-SH cells, approximately 96 hours, GAPDH reference. The procedure:
(§1) SK—N—SH cells were seeded at 8.5e3 per well in a 96 well plate, in […] (×4 plates, quadruplicate) and treated with the indicated compounds at different concentrations with a final DMSO concentration of 0.5%. Vehicle controls were set up by diluting DMSO 1:200. Cells were returned to a humidified incubator at 37° C., 5% CO2 and treated for approximately 96 hours.
(§2) RNA was isolated from each well using QIAGEN RNeasy mini columns (cat #74004) as per the manufacturer's instructions. Each condition was done in quadruplicate as mentioned above to allow for adequate starting template for downstream analyses. These quadruplicates were pooled (by condition) into single replicates at the cell lysis step. Reverse-transcription was done using the Applied Biosystems High-Capacity cDNA Reverse Transcription Kit (cat #4368814), per the manufacturer's instructions, using approximately half of the harvested RNA. The cDNA was diluted 1:10 in nuclease-free water, and qPCR was done using Applied Biosystems PowerUp SYBR Green Master Mix (cat #A25742) per the manufacturer's instructions. Cycling conditions are primers are detailed below. Each sample was run in technical duplicates.
(§3) Data were analyzed using the 2-DDCT method. GAPDH was used as the reference gene, and vehicle (i.e. DMSO only) treated cells were used as the reference/untreated cell populations. Relative expression of the HTT transcripts was plotted using Graphpad Prism.

Assay [2] concerns HTT (exclusion transcript). The experiment in a line: RT-qPCR assay to quantify changes in HTT splice isoforms: exclusion transcript. The settings on record: Homo sapiens, SK-N-SH cells, approximately 96 hours, GAPDH reference. The procedure:
as §1, §2, §3
On the technique in general: In qPCR the cycle at which signal appears reflects the starting amount.

As a reminder, the EC50 is the midpoint of the concentration-response curve. As for `Cc1cn2cc(-c3ccc(-c4ccc(C5CN(C)C5)nn4)c(O)c3)cc(F)c2n1` [Compound 12, 5-{8-fluoro-2-methylimidazo[1,2-a]pyridin-6-yl}-2-[6-(1-methylazetidin-3-yl)pyridazin-3-yl]phenol], the EC50 with HTT is 50 to 500 nM; in assay [1], 500 to 1000 nM; in assay [2], below 50 nM.
With `Cc1cn2cc(-c3ccc(-c4ccc(C5CN(C(C)C)C5)nn4)c(O)c3)cc(F)c2n1` [Compound 15, 5-{8-fluoro-2-methylimidazo[1,2-a]pyridin-6-yl}-2-{6-[1-(propan-2-yl)azetidin-3-yl]pyridazin-3-yl}phenol], the values for the EC50 (with HTT; in assay [1]; in assay [2]) were 50 to 500 nM, below 50 nM and below 50 nM, respectively.
As to `Cn1cc2cc(-c3ccc(-c4ccc(C5CN(C6CCOCC6)C5)nn4)c(O)c3)ccc2n1` [Compound 22, 5-(2-methyl-2H-indazol-5-yl)-2-{6-[1-(oxan-4-yl)azetidin-3-yl]pyridazin-3-yl}phenol], the EC50 in the assay with HTT is 500 to 1000 nM; in assay [2] it was below 50 nM.
In the case of `CC(C)N1CC(c2ccc(-c3ccc(-c4ccc5nn(C)cc5c4)cc3O)nn2)C1` [Compound 23, 2-(6-(1-isopropylazetidin-3-yl)pyridazin-3-yl)-5-(2-methyl-2H-indazol-5-yl)phenol], the EC50 was at least 1000 nM with HTT, above 1000 nM in assay [1] and below 50 nM in assay [2].
Turning to `Cc1cn2cc(-c3ccc(-c4ccc(C5CN(C)C5)nn4)c(O)c3)cc(C(F)(F)F)c2n1` [Compound 26, 5-[2-methyl-8-(trifluoromethyl)imidazo[1,2-a]pyridin-6-yl]-2-[6-(1-methylazetidin-3-yl)pyridazin-3-yl]phenol], the concentration giving a half-maximal response (EC50) was at least 1000 nM in the assay on HTT, 500 to 1000 nM in assay [1] and 50 to 500 nM in assay [2].
Taken in the same sequence, the figures for `COc1cc(-c2ccc(-c3ccc(C4CN(C)C4)nn3)c(O)c2)cc2cn(C)nc12` [Compound 28, 5-(7-methoxy-2-methyl-2H-indazol-5-yl)-2-[6-(1-methylazetidin-3-yl)pyridazin-3-yl]phenol] were 50 to 500 nM, 500 to 1000 nM and below 50 nM.
Regarding `CCN1CC(c2ccc(-c3ccc(-c4cc(C)c5nc(C)cn5c4)cc3O)nn2)C1` [Compound 36, 5-{2,8-dimethylimidazo[1,2-a]pyridin-6-yl}-2-[6-(1-ethylazetidin-3-yl)pyridazin-3-yl]phenol], the EC50 in the assay with HTT was at least 1000 nM; in assay [2], 50 to 500 nM.
Regarding `CCN1CC(c2ccc(-c3ccc(-c4ccc5nc(C)cn5n4)cc3O)nn2)C1` [Compound 38, 2-[6-(1-ethylazetidin-3-yl)pyridazin-3-yl]-5-{2-methylimidazo[1,2-b]pyridazin-6-yl}phenol], the EC50 in the assay with HTT is 50 to 500 nM; in assay [1] it was above 1000 nM; in assay [2], below 50 nM.
